Here are results for one compound from patent US4301313A, “Halogenated ethynyl biphenyls” (Eli-Lilly and Company, priority 1974, dated 1981).

The nature of test [1]: ultraviolet-induced erythema blocking test, oral (modified Winder method). In kind it is in vivo, guinea pig (male albino). The note with it: Cavia porcellus, guinea pig, weighted scores 1.0-2.5 h after UV, dose which provides 50% inhibition. The procedure: (§1) The compounds of the present invention were evaluated for anti-inflammatoryactivity by the ultraviolet-induced erythema blocking test. The test procedures were a modification of the Winder method (Winder, C. V.; Wax, J.; Burr, V.; Been, M.; and Posiere, C. E.: A Study of Pharmacological Influences on Ultraviolet Erythema in Guinea Pigs. Arch. Int. Pharmacodyn. 116: 261, 1958). Male albino guinea pigs weighing 240-300 gm. were used. The hair on the back was clipped and chemically depilated 15-18 hours before each experiment. The animals were fasted overnight, and on the day of the experiment, were randomized and placed in clear plastic partitioned holders 10×20 cm. wide and 15 cm. high.
(§2) The compounds to be tested were suspended in 1% methyl cellulose in water, utilizing a tissue homogenizer. The suspensions were administered orally in a volume of 2.0 ml./kg. of body weight. Control animals received an equal amount of the vehicle.
(§3) The source of ultraviolet light was a Hanovia lamp (Kromayer-Model 10). A notebook reinforcement ring was placed upon the lens of the lamp to provide an area of contrast for grading purposes. The lens was then placed in contact with the skin of the guinea pig's back. Exposure time to UV was for a period of 4 seconds. Beginning one hour after exposure and thereafter at half-hour intervals for another 11/2 hours, the degree of resulting erythema was graded by an arbitrary scoring system based upon the degree of contrast and redness formed. Anti-inflammatory agents delay the development of the erythema and have their greatest effect at the initial grading periods. The scores were, therefore, weighted by factors of 4, 3, 2, and 1 at the 1.0, 1.5, 2.0, and 2.5 hour scoring times, respectively. The erythema was graded as follows:
Total scores from each treatment group of four guinea pigs were compared to the scores of the control group. The percent inhibition was calculated as follows: [formula] In the case of compounds showing inhibition, retesting was carried out at a plurality of doses to enable calculation of an ED50 for each such compound. "ED50 " designates that dose which provides 50% inhibition. Calculation of the ED50 was either by a standard linear regression method or by estimation from a dose-response curve of three or more points. The compounds so tested and their ED50 s were as follows: […]

Test [2] can be described thus: analgesic activity, acetic acid-induced writhing. In kind it is in vivo, mouse (albino male). As to conditions: mouse, p.o., dose reducing writhing frequency by 50%; 30, 90, 180 minutes after administration. The procedure:
Representative compounds were also evaluated for analgesic activity. The evaluation was conducted by using acetic acid-induced writhing in mice as the pain model. Clinically effective analgesis are effective when tested in this model: see Koster et al., "Acetic Acid for Analgesic Screening," 18 Fed. Proc. 412 (1959).
In a method similar to that reported by Koster et al., standard strain albino male mice weighing 20-22 grams were fasted overnight. The respective compound or vehicle (as control) was administered by gastric lavage (p.o.). Each compound was administered in an aqueous suspension of 1% methylcellulose in water. […] At 30, 90, and 180 minutes after administration, writhing was induced by the intraperitoneal administration of 55 mg./kg. of acetic acid (0.55%). Each treatment group consisted of 5 mice and separate groups were examined at each observation time. The total number of writhes for the treatment group were counted in a 10-minute observation period starting 5 minutes after the acetic acid administration. The treatment totals were compared to controls and a percent inhibition calculated as follows: [formula] […] An ED50, which represented the dose that would reduce the writhing frequency by 50%, was estimated from a dose-reponse curve of three or more points. A dose range was reported if only two points were availale for the dose response curve and they bracketed the 50% level. If data was available at 100 mg./kg., only, then the estimated ED50 was reported simply as less than 100 (<100).

A short description of test [3]: ultraviolet-induced erythema test, compound administered 8 or 22 hours prior to exposure. The note with it: 0.5 mg./kg.; for Score 0.5 hours after exposure to ultraviolet: 0.5 h reading; for Score 1.0 hours after exposure to ultraviolet: 1.0 h reading; for Score 1.5 hours after exposure to ultraviolet: 1.5 h reading; for Score 2.0 hours after exposure to ultraviolet: 2.0 h reading; for Score 2.5 hours after exposure to ultraviolet: 2.5 h reading; for Score 3.0 hours after exposure to ultraviolet: 3.0 h reading. In kind it is in vivo, guinea pig. The procedure:
as §1, §2, §3
Total scores from each treatment group of four guinea pigs were compared to the scores of the control group. The percent inhibition was calculated as follows: [formula] In the case of compounds showing inhibition, retesting was carried out at a plurality of doses to enable calculation of an ED50 for each such compound. "ED50 " designates that dose which provides 50% inhibition. Calculation of the ED50 was either by a standard linear regression method or by estimation from a dose-response curve of three or more points. The compounds so tested and their ED50 s were as follows:
(4-(2-Fluorophenyl)phenyl)acetylene was evaluated again by the procedures of Examples 29-52, except that the compound was administered 8 or 22 hours prior to exposure to ultraviolet light. The dose was uniformly 0.5 mg./kg. Readings were made at half-hour intervals beginning at one-half hour after exposure and ending at three and one-half hours after exposure. Scores were not weighted, and results were recorded only as percent inhibition.

For the compound `C#Cc1ccc(-c2ccccc2F)cc1` [(4-(2-fluorophenyl)phenyl)acetylene], the ED50 (as a rule, the midpoint of the dose-response relation) in test [1] came to 0.05 mg/kg. For the same compound, the “Estimated ED50” value in test [2] was 20 mg/kg. Also, in test [3] (8 hours prior to exposure), the “% Erythema Inhibition” value was determined as 71%, the “Score 0.5 hours after exposure to ultraviolet” value was 0, the “Score 1.0 hours after exposure to ultraviolet” value worked out at 0 and the “Score 1.5 hours after exposure to ultraviolet” value worked out at 3. In addition, in test [3] (8 hours prior to exposure), the “Score 2.0 hours after exposure to ultraviolet” value amounted to 6, the “Score 2.5 hours after exposure to ultraviolet” value was found to be 6 and the “Score 3.0 hours after exposure to ultraviolet” value is recorded as 15. Moreover, in test [3] (8 hours prior to exposure, control 104), the “Total Score” value is recorded as 30. Also, in test [3] (22 hours prior to exposure), the “% Erythema Inhibition” value is reported as 41%, the “Score 0.5 hours after exposure to ultraviolet” value came to 3, the “Score 1.0 hours after exposure to ultraviolet” value was 4 and the “Score 1.5 hours after exposure to ultraviolet” value is 8. Further, in test [3] (22 hours prior to exposure), the “Score 2.0 hours after exposure to ultraviolet” value was determined as 14, the “Score 2.5 hours after exposure to ultraviolet” value came out at 17 and the “Score 3.0 hours after exposure to ultraviolet” value is listed as 17. Also, the “Total Score” value in test [3] (22 hours prior to exposure, control 107) was 63.
